Measurements published in patent publication US20180171288A1, “METHODS OF TREATING CANCER” (THE UNIVERSITY OF ROCHESTER, priority 2016, published 2018).
Where “and” joins values, the source holds several entries; their conditions need not be identical. Identical values can stand only once. Entries after “also recorded” stand apart in the source; their conditions may differ. Like-named read-outs stand apart in the source and are kept apart here.

Assays:
[1] = test system: OPCs isolated from the developing human central nervous system; test: Sensitivity of human OPCs to anticancer agents; format: cell-based
Description: This is a particularly difficult problem to solve in the context of cells of the central nervous system, as many of these cells are inherently more sensitive to anticancer agents than are cancer cells themselves. Previous studies have shown that one of the cell types of the brain that is most sensitive to the adverse effects of multiple chemotherapeutic agents are the oligodendrocyte progenitor cells (OPCs) that give rise to the myelin-forming oligodendrocytes of the central nervous system.

human TMXR MCF7 cells = test: TMXR MCF7 mammary fat pad xenograft in NSG mice; settings: mouse, in vivo
Cool-1/βpix = Cool-1/βpix Serine340 phosphorylation (antibody blot / immunostaining); format: cell-based, human; settings: anti-phospho-Cool1/βpix antibody
[2] = test system: complex between c-Cbl and Cool-1/βpix; settings: TMX-resistant luminal breast cancer cells
[3] = test system: tamoxifen-resistant luminal breast cancer cells
GBM cells [4] = test: Protein levels of direct and indirect c-Cbl targets in GBM cells; format: cell-based, human
Method: Alternatively, restoration of c-Cbl function can be determined by analysis of changes in the levels of direct targets of c-Cbl, with changes in the levels of two or more c-Cbl targets caused by the application of a single therapeutic intervention being an indicator of c-Cbl activation. In such analyses, cells are treated with saline, with the CRA or DCLTD by itself, with a pro-oxidant or with the combination of a CRA or a DCLTD with a pro-oxidant. The ability of treatment with the combined agents to cause greater decreases in the levels of proteins that are direct targets of c-Cbl provides a surrogate indicator of c-Cbl activation.
Six of the 10 compounds remaining were chosen to determine whether they restored the ability of oxidation of cells to cause decreases in levels of a c-Cbl target, an outcome that occurs when c-Cbl is activated via the redox/Fyn/c-Cbl pathway. These compounds indeed restored the ability of pro-oxidative stimulation to cause decreases in the levels of the epidermal growth factor receptor (EGFR), which is a c-Cbl target known to be important in growth of many cancer cells and that is of interest as a potential target in cancer treatment.
There are two groups of such proteins, ones in which the connection to a c-Cbl target can be reasonably surmised based on prior research and ones for which the linkage to c-Cbl is currently unknown. Non-limiting examples of the first category of outcomes are activities of Erk1/2 and Akt, which both are downstream of receptor tyrosine kinases that are targets of c-Cbl. Further non-limiting examples are activity levels of NF-κB and serum response element (SRE), which are activated downstream of Akt and […], respectively.

[5] = test system: complex between c-Cbl and Cool-1/βpix; test: Complex between c-Cbl and Cool-1/βpix in GBM cells (immunoprecipitation, immunoblot); format: cell-based, human
Description: Lysates of treated and untreated cells were immuno-precipitated with anti-c-Cbl antibody followed by immunoblot analysis for Cool-1/βpix expression.

c-Cbl = c-Cbl phosphorylation in GBM cells; format: cell-based, human
Method: In this approach, cancer cells are treated with a CRA or a DCLTD in the presence or absence of an agent that causes cells to become more oxidized. The status of c-Cbl phosphorylation may be analyzed by any of a number of means well-known to those skilled in the art, including Western blot analysis of cell lysates with an antibody that identifies phosphorylated c-Cbl, for instance at tyrosine residues Y731 or Y771, analysis of cell labeling with such antibodies which may be conjugated with a fluorescent probe that makes them suitable for analysis by fluorescence microscopy, immunohistochemistry or by automated fluorescence analysis of some form, or by CYTOF mass cytometry analysis. The change in phosphorylation status is compared with that seen in untreated cells, in cells treated with the CRA or DCLTD by itself, or that treated with a pro-oxidant by itself.
An example of the ability of DCLTDs to restore the ability of TMX to enhance phosphorylation of c-Cbl via the redox/Fyn/c-Cbl pathway is shown in FIG. 8. […] As predicted if activation was RFC pathway-mediated, such activation was inhibited by N-acetyl-L-cysteine (NAC, a glutathione pro-drug and anti-oxidant), thus confirming that TMX-induced activation of c-Cbl was dependent on the pro-oxidative activities of TMX.

melanoma cells = test: Sensitivity of melanoma cells to TMX; format: cell-based
TMXR MCF-7 cells = test: Growth and killing of TMXR MCF-7 cells in vitro; format: cell-based, human; settings: for vulnerability / resistance of TMXR MCF-7 cells to 4^OH-CPP: 3 μM MPT, 5 μM TMX, 5 μM 4^OH-CPP
GBM cells [6] = test: Sensitivity of GBM cells to TMX / cell killing; format: cell-based, human
Description: The cell lines studied represent a range of glioblastoma subtypes and genotypes and generate human glioblastomas when transplanted into the CNS of immune-deficient mice.

GBM TICs = test: Tumor generation by GBM cells treated in vitro and transplanted intra-cranially in NSG mice; format: in vivo; settings: cells exposed 72 hrs in vitro, four GBM cell lines
Description: After treatment, 500,000 live cells were transplanted intra-cranially in NSG mice. […] In contrast with the effects of MPT+TMX in TICs, treatment with temozolomide (TMZ, the frontline treatment for glioblastoma), had no apparent effects on TICs (FIG. 12D).
Unexpectedly, in light of the partial reduction in levels of Cool-1/βpix, and the similarly partial reduction in levels of proteins important in TIC biology, treatment with DCLTD-based therapies eliminates TICs. […] After treatment, 500,000 live cells were transplanted intra-cranially in NSG mice. […] Thus, treatment with temozolomide had little apparent effect on TIC elimination, in agreement with patient data indicating rapid recurrence of tumor even during the period of temozolomide treatment.
Exposure of GBM cells to the combination of MPT+TMX led to the apparently complete elimination of GBM cancer stem cells. GBM cells from four different cell lines were exposed to MPT+TMX combination for 72 hrs in vitro, after which 500,000 live cells were transplanted intra-cranially in NSG mice.

parental MCF-7 cells = format: cell-based, human
hGBM10 = test: Intracranial xenograft, hGBM10; format: in vivo, NSG mice
human GBM cells = test: Established intracranial human GBM xenografts in NSG mice (cohorts together)
hGBM27 = test: Intracranial xenograft, hGBM27; format: in vivo, NSG mice
MDA-MB-231 cells = test: Sensitivity of MDA-MB-231 BLBC cells to TMX; format: cell-based
Description: Sertraline and mefloquine both were identified in screens on MDA-MB-231 BLBC cells, in which c-Cbl is inhibited in a Cdc42-dependent manner.

tumor growth = settings: in combination with TMX; cited from earlier work

In the case of `OCCNC1CCCc2c1[nH]c1ccc(-c3ccccc3)cc21` (stereo not shown) [CASIN], the “sensitivity of OPCs to TMX” value [1] is reported as “does not increase the vulnerability of OPCs to TMX”.

With `O=P1(N(CCCl)CCCl)NCCCO1` (stereo not shown) [CPP, cyclophosphamide] the tumor growth (human TMXR MCF7 cells) was “already have initiated tumor growth midway through treatment”.

In the case of `CNCCCC12CCC(c3ccccc31)c1ccccc12` [MPT, maprotiline], the “Cool-1/βpix phosphorylation on Serine340” value (Cool-1/βpix) is reported as “decreases the level of staining; also recorded: causes a decrease in levels of Cool-1/βpix phosphorylation”, the “sensitivity of OPCs to TMX” value [1] is reported as “did not increase the sensitivity” and the “sensitivity of OPCs to temozolomide” value [1] is reported as “does not increase the sensitivity of OPCs to temozolomide”. The “levels of the complex between c-Cbl and Cool-1/βpix” value [2] was “causes a decrease in levels of the complex”, the “tamoxifen sensitivity of tamoxifen-resistant luminal breast cancer cells” value [3] was “increase in tamoxifen sensitivity” and the “levels of Cool-1/βpix” value (GBM cells [4]) was “decreases levels of the inhibitory protein Cool-1/βpix”. For the same molecule, the “levels of the c-Cbl targets EGFR, Notch-1, β-catenin and PDGFRα” value (GBM cells [4]) was “decreases were less marked”, the “levels of the complex between c-Cbl and Cool-1/βpix” value [5] was “virtually complete elimination of complexes; also recorded: marked reductions in levels of the complex” and the c-Cbl phosphorylation (c-Cbl) was “enabled TMX-induced c-Cbl phosphorylation”. The “sensitivity of melanoma cells to TMX” value (melanoma cells) was “increased the sensitivity of melanoma cells to TMX”, the “vulnerability / resistance of TMXR MCF-7 cells to 4^OH-CPP” value (TMXR MCF-7 cells) was “only slightly increased vulnerability to 4^OH-CPP” and the “sensitivity of GBM cells to TMX” value (GBM cells [6]) was “enhanced the sensitivity of GBM cells; also recorded: increase in tamoxifen sensitivity”.

In the case of `CC/C(=C(\c1ccccc1)c1ccc(OCCN(C)C)cc1)c1ccccc1` [TMX, tamoxifen], the “tumor generation after transplant of 500,000 live treated cells” value (GBM TICs) is reported as “generated tumors within three weeks”, the “levels of FoxM1, Sox2, HSF-1 and HSP70” value (GBM cells [4]) is reported as “does not have the above effects” and the c-Cbl phosphorylation (c-Cbl) is reported as “alone was not sufficient to activate c-Cbl”. For the same molecule, the “effect on cell division and survival” value (parental MCF-7 cells) was “cytostatic but not lethal”, the “cell division in the presence of TMX” value (TMXR MCF-7 cells; 1 μM TMX, TMXR cells) was “continue to divide” and the “vulnerability / resistance of TMXR MCF-7 cells to 4^OH-CPP” value (TMXR MCF-7 cells) was “only slightly increased vulnerability to 4^OH-CPP”.

For `Cn1nnc2c(C(N)=O)ncn2c1=O` [TMZ, temozolomide], the “increase in tumor size at 12 weeks” value (hGBM10; hGBM10) was > 500 fold and 500 fold, the median survival (hGBM10; hGBM10 cohort) was 12 weeks and the “increase in lifespan over saline-treated mice” value (human GBM cells; median 9 week survival of saline-treated mice) was 30%. For the same molecule, the “time lived after treatment was stopped” value (human GBM cells; mouse, in vivo) was 4-5 weeks and 2-6 weeks, the “week of treatment in which tumor size began to increase” value (hGBM27; hGBM27) was 4 week and the “increase in tumor size (photon flux) at 12 weeks” value (hGBM27; hGBM27, 3 weeks after cessation of treatment) was over 5000 fold. For the same molecule, the “increase in tumor size (photon flux) at the end of 9 weeks of treatment” value (hGBM27; hGBM27, oral gavage 5 days on/2 days off) was over 100 fold and the median survival (hGBM27; hGBM27 cohort) was 11.5 weeks.

For `CN(C)CCC=C1c2ccccc2CCc2ccccc21` [amitryptiline], the “sensitivity of GBM cells to TMX” value (GBM cells [6]) was “none of them were as effective as MPT”.

In the case of `CNCCC(Oc1ccc(C(F)(F)F)cc1)c1ccccc1` (stereo not shown) [fluoxetine], the “sensitivity of GBM cells to TMX” value (GBM cells [6]) is reported as “none of them were as effective as MPT”.

With `Cc1cccc(CN2CCN(C(c3ccccc3)c3ccc(Cl)cc3)CC2)c1` (stereo not shown) [meclizine] the “sensitivity of GBM cells to TMX” value (GBM cells [6]) was “increased the vulnerabilty of GBM cells to TMX”.

For `OC(c1cc(C(F)(F)F)nc2c(C(F)(F)F)cccc12)C1CCCCN1` (stereo not shown) [mefloquine], the “sensitivity of melanoma cells to TMX” value (melanoma cells) was “increased the sensitivity of melanoma cells to TMX”.

In the case of `CN[C@H]1CC[C@@H](c2ccc(Cl)c(Cl)c2)c2ccccc21` [sertraline], the “sensitivity of OPCs to TMX” value [1] is reported as “does not increase sensitivity of OPCs to TMX” and the “sensitivity of MDA-MB-231 BLBC cells to TMX” value (MDA-MB-231 cells) is reported as “increased the sensitivity of these cells to TMX; also recorded: increase in tamoxifen sensitivity”.

For `C=C(NC(=O)C(=C)NC(=O)c1csc(C2=N[C@@H]3c4csc(n4)[C@H]4NC(=O)c5csc(n5)[C@H]([C@](C)(O)[C@@H](C)O)NC(=O)[C@H]5CSC(=N5)/C(=C/C)NC(=O)[C@H]([C@@H](C)O)NC(=O)c5csc(n5)[C@]3(CC2)NC(=O)[C@H](C)NC(=O)C(=C)NC(=O)[C@H](C)NC(=O)[C@H]([C@@H](C)CC)N[C@@H]2C=Cc3c([C@H](C)O)cc(nc3[C@H]2O)C(=O)O[C@@H]4C)n1)C(N)=O` [thiostrepton], the c-Cbl phosphorylation (c-Cbl) was “not associated with a notable increase in c-Cbl phosphorylation” and the “sensitivity of GBM cells to TMX” value (GBM cells [6]) was “does not increase sensitivity to TMX as potently as does MPT”.

In the case of ML141, the “suppression of tumor growth” value (tumor growth) is listed as “only provided partial suppression of tumor growth”.
